Reference: article PMC5608908, “Novel scaffolds for inhibition of Cruzipain identified from high-throughput screening of anti-kinetoplastid chemical boxes” (Scientific Reports, 2017)

Columns and labels:
[1] = molecular target: T1, Cruzipain (Trypanosoma cruzi, UniProt P25779); assay type: biochemical; conditions: for Behavior of dose-response curve: compound 62.5 µM – 7.5 pM; for Ki (tight-binding, suggested from IC50 in the order of the enzyme concentration): estimate from IC50 values
T1 construct: Cruzipain (CZP) was purified to homogeneity from epimastigotes of the Tul 2 strain; from tissue; host or cells: Trypanosoma cruzi epimastigotes, Tul 2 strain (natural enzyme, not recombinant)
Experimental: (§1) Assay was performed in a solid black 384-well plate (final reaction volume ~80 μL) and the release of 7-amino-4-methylcoumarin was monitored continuously at 30 °C with a Beckman Coulter DTX 880 Multimode Reader (Radnor, Pennsylvania, USA) using standard 340 nm excitation and 450 nm emission filter set. Final substrate concentration was set to 2 μM to match previously reported conditions[31] and being close to the KM value for this substrate. Optimal Cruzipain assay concentration (5.8 nM) was selected from 2-fold serial dilutions to match three criteria: (i) being linearly proportional to V0, (ii) display robust signal evolution at 2 μM substrate concentration and (iii) display linear kinetics for enough time to perform several reading cycles (at least 10 cycles, minimum time between cycles: 264 sec) through the 384-wells. In all cases, E-64(final concentration 125 nM) was used as positive inhibition control.
To avoid any positional and/or association bias, we randomly defined the row position for each compound. One μL of compounds stock (10 mM in DMSO) and E-64 (10 mM in DMSO) were added to the first well of column 1, followed by addition of 40 μL of 100 mM NaAc, 5 mM DTT, 0.01% Triton X-100 pH 5.5 buffer. After addition of 20 μL of the same buffer to subsequent wells of the plate, 22 serial 2-fold dilutions were made horizontally. The last two positions of every row were used, alternatively, for C^+ and C^− controls to reduce any positional and/or association bias. Then, 20 μL of activity buffer containing Cruzipain ([…]) were added to each well, except for those corresponding to C^−; completed with 20 μL of activity buffer. After homogenization, 15 minutes of incubation at 30 °C and autofluorescence measurement, 40 μL of a 4 μM solution of Z-FR-AMC substrate (in activity buffer) was added to the previous mix. Data collection and processing were performed exactly as described above. Percentage of Cruzipain residual activity was calculated for each condition according to Eq. 7:7 %Res.Act.^CRUZIPAIN=100⋅[(dF/dt^WELL−µ^C−)/(µ^C+−µ^C−)] where dF/dt^WELL represents the slope of each compound well and µ^C+ and µ^C− the average of Cruzipain (no-inhibition) and substrate (no-enzyme) controls, respectively. The IC50 and Hill slope parameters for each compound were estimated by fitting the four-parameter Hill equation to experimental data from dose-response curves using the GraphPad Prism program (version 5.03).

[2] = molecular target: T1, Cruzipain; test: biochemical; conditions: Cruzipain 11.6 nM; for IC50: Z-FR-AMC 2 μM, pH 5.5, 30 °C, 15 min preincubation, four-parameter Hill fit; for Hill Slope: four-parameter Hill fit of dose-response curve
[3] = molecular target: T1, Cruzipain; assay type: biochemical; conditions: for Hit call by statistically robust cutoff (µC+ − 3 × SDC+): compound 25 µM, singlet
Experimental: as §1
To perform the high-throughput screening, 1 μL of each compound (2 mM in DMSO), E-64 (10 μM in DMSO) or DMSO (negative controls) were dispensed into 384-well Corning black solid-bottom assay plates. Then, 40 μL of 100 mM NaAc, 5 mM DTT, 0.01% Triton X-100 pH 5.5 containing Cruzipain (11,6 nM) were added to each well, plates were homogenized (30 seg, orbital, medium intensity) and each well subjected to a single autofluorescence read (exc/ems = 340/450 nm). Plates were incubated in darkness for 15 min at 30 °C and then 40 μL of Z-FR-AMC (4 μM) in assay buffer were added to each well to start the reaction. After homogenization (30 seg, orbital, medium intensity), the fluorescence of AMC (exc/ems = 340/450 nm) was acquired kinetically for each well (12 read cycles, one cycle every 300 seconds).
Raw screening measurements were used to determine the slope (dF/dt) of progression curves by linear regression for control and compound wells. In the case of control-dependent hit selection criterium, percent inhibition (%Inh) was calculated for each compound according to Eq. 6:6 %Inh=100⋅[1−(dF/dt^WELL−µ^C−)/(µ^C+−µ^C−)] where dF/dt^WELL represents the slope of each compound well and µ^C+ and µ^C− the average of Cruzipain (no-inhibition) and substrate (no-enzyme) controls, respectively.

[4] = molecular target: T1, Cruzipain; assay type: biochemical; conditions: E-64 1 nM, Cruzipain 5.8 nM, 24 replicates
Experimental: as §1, with “In all cases, E-64(final concentration 125 nM) was used as positive inhibition control.” left out

[5] = system: T. cruzi intracellular amastigotes; parameters: method as in PMID 25740547; conditions: T. cruzi intracellular amastigotes vs T. brucei axenic bloodstream forms; cited from earlier work
[6] = system: T. cruzi; parameters: method as in PMID 9705954, PMID 17698625, PMID 16304193; conditions: immunocompetent and immunodeficient mice, dogs; cited from earlier work

T1 sequence (P25779 123-467): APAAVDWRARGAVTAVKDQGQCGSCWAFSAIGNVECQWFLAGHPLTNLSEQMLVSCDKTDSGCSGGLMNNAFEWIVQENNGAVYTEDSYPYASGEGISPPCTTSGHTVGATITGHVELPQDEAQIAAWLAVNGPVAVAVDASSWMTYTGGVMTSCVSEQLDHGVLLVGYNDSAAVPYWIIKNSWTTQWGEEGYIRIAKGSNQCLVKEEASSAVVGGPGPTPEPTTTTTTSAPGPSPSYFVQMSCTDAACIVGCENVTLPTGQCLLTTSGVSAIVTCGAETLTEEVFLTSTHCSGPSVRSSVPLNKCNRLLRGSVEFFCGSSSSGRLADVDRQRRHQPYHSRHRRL

Structure (SMILES): COc1ccc(OC)c(S(=O)(=O)N(Cc2c(F)cccc2F)C2CCN(C#N)C2)c1 (stereo not shown) [TCMDC-143370]
- IC50 range against Cruzipain, in words [1]: low micromolar range
- IC50 [2]: 5650 µM
- Hill Slope [2]: −0,7542

Structure (SMILES): Cl.Cl.O=c1ccc2ccc(F)c3c2n1C[C@H]3CN1CCN(CC(O)c2cc3c(cn2)OCS3)CC1 (stereo partly shown) [TCMDC-143158]
- Hit call by statistically robust cutoff (µC+ − 3 × SDC+) [3]: positive hits

Structure (SMILES): NC(N)=Nc1nc(-c2ccc(NC(N)=NCCN3CCCC3)cc2)cs1 [TCMDC-143640]
- IC50 [2]: 3390 µM
- Hill Slope [2]: −0,9825

Structure (SMILES): CC(C)C[C@H](NC(=O)[C@H]1O[C@@H]1C(=O)O)C(=O)NCCCCN=C(N)N (relative stereo) [Compound E-64, trans-epoxysuccinyl-L-leucylamido-(4-guanidino)butane, reference compound]
- E-64 Control activity slope, Mean, Plate 2 ([3]; E-64 final concentration 125 nM, Cruzipain control 210.84): 6.36 RFU/sec
- E-64 Control activity slope, Mean, Plate 1 ([3]; E-64 final concentration 125 nM, Cruzipain control 893.31): 19.30 RFU/sec
- average inhibition with respect to Cruzipain control [4]: 9.87%

Structure (SMILES): COc1ccc2ncc(=O)n(CCN3CC[C@H](NCc4ncc(Cl)c5[nH]ncc45)[C@H](O)C3)c2n1 [TCMDC-143373]
- Behavior of dose-response curve [1]: erratic behavior
- Hit call by statistically robust cutoff (µC+ − 3 × SDC+) [3]: positive hits

Structure (SMILES): COc1ccc2nccc([C@H](O)CN3CC[C@H](NC(=O)c4ccc(Br)cc4)[C@@H](O)C3)c2n1 [TCMDC-143527]
- Hit call by statistically robust cutoff (µC+ − 3 × SDC+) [3]: positive hits

Structure (SMILES): CC(C)C[C@H](NC(=O)c1ccc(-c2ccccc2)o1)C(=O)NC1(C#N)CC1 [TCMDC-143393]
- IC50 range against Cruzipain, in words [1]: submicromolar range
- Ki (tight-binding, suggested from IC50 in the order of the enzyme concentration) [1]: 1 to 4 × 10^−8 M
- IC50 [2]: 0.0303 µM
- Hill Slope [2]: −0,957
- IC50 against T. cruzi relative to T. brucei [5]: between one and two orders of magnitude higher

Structure (SMILES): CC1(Oc2cncc(Cl)c2)CCN(Cc2cc3ccccc3[nH]2)C1 (stereo not shown) [TCMDC-143162]
- Hit call by statistically robust cutoff (µC+ − 3 × SDC+) [3]: positive hits

Structure (SMILES): COc1cc(OC)cc(C(=O)N[C@@H](CC(C)C)C(=O)NC2(C#N)CC2)c1 [TCMDC-143390]
- IC50 range against Cruzipain, in words [1]: submicromolar range
- Ki (tight-binding, suggested from IC50 in the order of the enzyme concentration) [1]: 1 to 4 × 10^−8 M
- IC50 [2]: 0.0678 µM
- Hill Slope [2]: −0,9354

Structure (SMILES): NCC(Cc1ccccc1)NC(=O)c1cnc(-c2c[nH]c3ncccc23)s1.O=C(O)C(F)(F)F.O=C(O)C(F)(F)F (stereo not shown) [TCMDC-143176]
- Behavior of dose-response curve [1]: activation phenotype at highest concentrations

Structure (SMILES): COc1ccc2ncc(Cl)c(CCN3CCC(NCc4cc5c(cn4)OCS5)C(O)C3)c2n1 (stereo not shown) [TCMDC-143513]
- IC50 [2]: 14.9 µM
- Hill Slope [2]: −0,8108

Structure (SMILES): COc1cc(F)c2ncc(F)c(CCN3CC[C@H](NCc4cc5c(cn4)OCS5)[C@@H](O)C3)c2c1 [TCMDC-143510]
- IC50 [2]: 16.1 µM
- Hill Slope [2]: −0,7998

Structure (SMILES): CN1CCN(C(=O)N[C@@H](Cc2ccccc2)C(=O)N[C@H](/C=C/S(=O)(=O)c2ccccc2)CCc2ccccc2)CC1 [Compound K777, N-[(2 S)-1-[[(E,3 S)-1-(benzenesulfonyl)-5-phenylpent-1-en-3-yl]amino]-1-oxo-3-phenylpropan-2-yl]-4-methylpiperazine-1-carboxamide]
- Efficacy in preclinical models of T. cruzi infection [6]: efficacious
